Measured values: publication PMC2825241, “Uptake of purines in Plasmodium falciparum-infected human erythrocytes is mostly mediated by the human Equilibrative Nucleoside Transporter and the human Facilitative Nucleobase Transporter” (2010)

Target: T1, human equilibrative nucleoside transporter (hENT1) (Homo sapiens, UniProt Q99808)
T1 construct: gene SLC29A1; endogenous transporter in intact human erythrocytes
T1 sequence (Q99808 2-456): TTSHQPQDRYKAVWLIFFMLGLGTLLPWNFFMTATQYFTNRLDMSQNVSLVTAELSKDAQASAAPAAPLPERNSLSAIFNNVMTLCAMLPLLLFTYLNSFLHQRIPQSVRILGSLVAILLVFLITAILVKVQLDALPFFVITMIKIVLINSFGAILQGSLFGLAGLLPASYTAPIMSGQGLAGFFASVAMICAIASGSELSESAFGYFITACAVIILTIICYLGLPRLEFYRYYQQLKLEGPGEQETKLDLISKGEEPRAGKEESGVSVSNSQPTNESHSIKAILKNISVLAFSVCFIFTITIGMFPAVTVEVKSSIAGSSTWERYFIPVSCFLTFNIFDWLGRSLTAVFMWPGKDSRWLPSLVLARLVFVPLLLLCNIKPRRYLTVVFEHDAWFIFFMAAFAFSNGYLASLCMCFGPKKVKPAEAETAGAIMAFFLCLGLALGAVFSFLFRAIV
Assay: saturable [3H]-uridine uptake into uninfected human erythrocytes (Km)
Assay type: cell-based

`O=c1ccn([C@@H]2O[C@H](CO)[C@@H](O)[C@H]2O)c(=O)[nH]1` [uridine] was tested, and the Km was 177 ± 30 µM.
